The values that follow are results of earlier work, collected in US4436732A, “Medicated compound for treating diseases infected by virus of the herpes group” (priority 1981, dated 1984).

The conditions of this data set: known preparations, background; cited from earlier work.

As for `O=c1[nH]cc(F)c(=O)[nH]1` [5-fluorouracyl], the toxicity entry is reported as “rather toxic”.
